From the supplement of paper PMC12370961

Legend:
Assay in all cases: differential drug sensitivity score (dDSS) relative to sarcoma reference cohort mean DSS (DSS units (0-100 scale difference)); higher = more selective sensitivity than reference sarcomas
Details in all cases: exposure time: 72 h; concentration range: 10-10000 nM
ES-ZH009 = system: ES-ZH009 (patient-derived Ewing sarcoma tumoroid)
Experimental: (§1)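 Drug response profiling of patient-derived Ewing sarcoma and CIC::DUX4 sarcoma tumoroid models (or cells tested directly after isolation from the tumor, 'direct'). The DSS is the normalised AUC (0-100); dDSS is the sample DSS minus the mean DSS of a 34-sarcoma reference cohort profiled in the same lab.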

ES-ZH016 direct = system: ES-ZH016 direct (Ewing sarcoma cells right after isolation)
Experimental: as §1

ES-ZH002 = system: ES-ZH002 (patient-derived Ewing sarcoma tumoroid)
Experimental: as §1

CDS-ZH003 = system: CDS-ZH003 (patient-derived CIC-DUX4 sarcoma tumoroid)
Experimental: as §1

ES-ZH007 = system: ES-ZH007 (patient-derived Ewing sarcoma tumoroid)
Experimental: as §1

ES-ZH008 = system: ES-ZH008 (patient-derived Ewing sarcoma tumoroid)
Experimental: as §1

ES-ZH001 = system: ES-ZH001 (patient-derived Ewing sarcoma tumoroid)
Experimental: as §1

CDS-ZH002 direct = system: CDS-ZH002 direct (CIC-DUX4 sarcoma cells right after isolation)
Experimental: as §1

ES-ZH016 = system: ES-ZH016 (patient-derived Ewing sarcoma tumoroid)
Experimental: as §1

CDS-ZH001 = system: CDS-ZH001 (patient-derived CIC-DUX4 sarcoma tumoroid)
Experimental: as §1

CDS-ZH001-2 = system: CDS-ZH001-2 (patient-derived CIC-DUX4 sarcoma tumoroid)
Experimental: as §1

CDS-ZH002 = system: CDS-ZH002 (patient-derived CIC-DUX4 sarcoma tumoroid)
Experimental: as §1

ES-ZH004 = system: ES-ZH004 (patient-derived Ewing sarcoma tumoroid)
Experimental: as §1

Compound | differential drug sensitivity score (ES-ZH009) | differential drug sensitivity score (ES-ZH016 direct) | differential drug sensitivity score (ES-ZH002) | differential drug sensitivity score (CDS-ZH003) | differential drug sensitivity score (ES-ZH007) | differential drug sensitivity score (ES-ZH008) | differential drug sensitivity score (ES-ZH001) | differential drug sensitivity score (CDS-ZH002 direct) | differential drug sensitivity score (ES-ZH016) | differential drug sensitivity score (CDS-ZH001) | differential drug sensitivity score (CDS-ZH001-2) | differential drug sensitivity score (CDS-ZH002) | differential drug sensitivity score (ES-ZH004)
Cn1c(Nc2ccc(C(F)(F)F)cc2)nc2cc(Oc3ccnc(-c4ncc(C(F)(F)F)[nH]4)c3)ccc21 [RAF-265] | 9.3 | 6.4 | 6.1 | -2.8 | -0.7 | 5.2 | 5.1 | 3 | 1 | -2.9 | 0.9 | -6.1 | -2.3
Cc1nc(Nc2ncc(C(=O)Nc3c(C)cccc3Cl)s2)cc(N2CCN(CCO)CC2)n1 [Dasatinib] | -7 | 9.3 | 2.2 | -9.6 | -6.8 | -7.5 | -4.5 | 8.9 | -10.8 | -11.9 | -4.6 | -3.2 | -3.6
CCN(c1cc(-c2ccc(CN3CCOCC3)cc2)cc(C(=O)NCc2c(C)cc(C)[nH]c2=O)c1C)C1CCOCC1 [Tazemetostat] | 1 | -1.1 | -1.1 | -7 | -1.1 | -1.1 | -1.1 | -1.1 | -0.7 | -0.8 | -1.1 | -0.9 | -1.1
C=CC(=O)N1CCC[C@@H](n2nc(-c3ccc(Oc4ccccc4)cc3)c3c(N)ncnc32)C1 [Ibrutinib] | -2.7 | 1.4 | 0.4 | -2.7 | -2.7 | -2.2 | -2.1 | -2.1 | -2.7 | -2.7 | -2.7 | -2.7 | -2.5
CCc1ccc(/C=C2/SC(=S)NC2=O)cc1 | 3.1 | 4 | 1.2 | -1.6 | -1.2 | -1.6 | -2.1 | -2.1 | 5.6 | 3.2 | 1 | 2.3 | -2.1
Clc1ccc(NN=C(c2ccccc2)c2ccccn2)nc1 [JIB04] | -2.6 | -0.6 | -6 | -2.7 | 0.7 | -2.5 | -6.1 | -4.8 | 1.5 | -4.4 | 0.6 | 1.4 | -4.3
CN(C)C/C=C/C(=O)Nc1ccc(C(=O)Nc2cccc(Nc3ncc(Cl)c(-c4c[nH]c5ccccc45)n3)c2)cc1 [THZ1] | 7.4 | 9 | 4.3 | -8.9 | 0.1 | 8.6 | 4.2 | 9.2 | 10.2 | 0 | 6.7 | 0.9 | 11.4
NC(=O)C1CCCc2c1[nH]c1ccc(Cl)cc21 (configuration not stated) [Selisistat] | -0.7 | -1.3 | -1 | -2 | -1.4 | 8.9 | -1.4 | -1.4 | -0.9 | -0.5 | -1.3 | -0.9 | -1.3
CN(C)C(=O)c1cc2cnc(Nc3ccc(N4CCNCC4)cn3)nc2n1C1CCCC1 [Ribociclib] | 1.9 | -3 | 8 | -0.8 | 4.1 | 3.5 | 2.6 | -2 | 0.4 | -2.1 | -2.1 | -2.3 | 4.2
CCc1c2c(nc3ccc(O)cc13)-c1cc3c(c(=O)n1C2)COC(=O)[C@]3(O)CC [SN-38] | 15.7 | 4.9 | 15.3 | -1.4 | 17.1 | 8.8 | 13.2 | -0.9 | 16.4 | 7 | 5.2 | -1 | 14.9
CC[C@]1(O)C[C@H]2CN(CCc3c([nH]c4ccccc34)[C@@](C(=O)OC)(c3cc4c(cc3OC)N(C=O)[C@H]3[C@@](O)(C(=O)OC)[C@H](OC(C)=O)[C@]5(CC)C=CCN6CC[C@]43[C@@H]65)C2)C1 [Vincristine] | 26 | 10 | 24 | -10.2 | 16.1 | 16.9 | 24.2 | 13.4 | 18.3 | 9.3 | -4.8 | 10.8 | 13.2
CN1CCC(CNc2ccc3ncc(-c4cccc(OC(F)(F)F)c4)n3n2)CC1 [SGI1776] | 0.3 | -0.3 | 6.6 | 4.4 | 0.5 | 2.1 | 0.3 | -0.4 | 0.8 | 3.5 | 3.7 | 0.1 | 1.6
CS(=O)(=O)CCNCc1ccc(-c2ccc3ncnc(Nc4ccc(OCc5cccc(F)c5)c(Cl)c4)c3c2)o1 [Lapatinib] | -0.7 | -0.5 | 0.3 | -0.7 | -0.7 | -0.7 | -0.7 | -0.7 | -0.7 | -0.7 | -0.5 | -0.7 | -0.7
S=P(N1CC1)(N1CC1)N1CC1 [Thiotepa] | -1.4 | 17 | 11.2 | 9.4 | 3.1 | 8.7 | 7 | -4.2 | 9.2 | 4.6 | 0.2 | -3.1 | 5.2
Cc1ccc2nc(NCCN)c3ncc(C)n3c2c1 | 1.8 | 0.5 | 3.8 | -1.9 | 1.4 | -1.3 | 1.4 | 2.2 | 3.7 | 3 | 4.2 | 1 | -2.3
C[C@H](Nc1ncnc2nc[nH]c12)c1cc2cccc(Cl)c2c(=O)n1-c1ccccc1 [Duvelisib] | 9.1 | 4.2 | 1.9 | -1.2 | -2.7 | -1.1 | -5.6 | 0.6 | 3.4 | 4.2 | 4.4 | 1.2 | -4.4
CCc1c2c(nc3ccc(OC(=O)N4CCC(N5CCCCC5)CC4)cc13)-c1cc3c(c(=O)n1C2)COC(=O)[C@]3(O)CC [Irinotecan] | 9.1 | 15.8 | 23.1 | -9.5 | 14.3 | 31.1 | 19.6 | -5.3 | 17.9 | 1 | -0.6 | -4 | 23.1
Nc1cc(C(F)F)c(-c2nc(N3C4CCC3COC4)nc(N3C4CCC3COC4)n2)cn1 [PQR620] | 2.8 | -3.2 | 10.2 | 5 | 2 | 4.4 | 0.1 | -3.3 | -0.4 | 1.5 | 0.8 | -3.2 | 5.3
CC(=O)Nc1cccc(-n2c(=O)n(C3CC3)c(=O)c3c(Nc4ccc(I)cc4F)n(C)c(=O)c(C)c32)c1 [Trametinib] | -3.5 | -3.5 | 9.5 | 3.2 | -3.5 | 4.1 | 3.2 | -3.5 | -3.5 | -3.5 | -3.5 | -3.5 | 1.5
CO[C@@H](C)Cn1c(=O)n(C)c2cnc3ccc(-c4cncc(C(C)(C)O)c4)cc3c21 [Samotolisib] | 7.1 | -2.7 | 12.2 | 0.5 | 2.6 | 10.9 | 1 | 4.5 | 6 | 2.3 | 0.9 | -8.8 | 2.3
Cn1c(=O)n(-c2ccc(C(C)(C)C#N)cc2)c2c3cc(-c4cnc5ccccc5c4)ccc3ncc21 [Dactolisib] | 13.6 | -7.5 | 5 | 3.4 | 1.5 | -0.5 | 3 | 1.1 | -2.5 | 3.3 | 1.3 | -0.4 | 1
CN1CCN(c2ccc(C(=O)Nc3n[nH]c4ccc(Cc5cc(F)cc(F)c5)cc34)c(NC3CCOCC3)c2)CC1 [Entrectinib] | 2 | 10.8 | 8.1 | -4.3 | -1.1 | 6 | 3 | -2.3 | 2.3 | 2 | 7.7 | 0.2 | 12.9
O=C(c1ccc(Nc2nccc(-c3cc4ccccc4s3)n2)cc1)N1CCC(N2CCCC2)CC1 [IKK16] | 0.4 | 0.1 | 2.3 | 0.7 | -0.6 | 0 | -2.5 | 0.3 | -4.4 | -0.1 | 0 | -4 | -4.1
CCNC(=O)C[C@@H]1N=C(c2ccc(Cl)cc2)c2cc(OC)ccc2-n2c(C)nnc21 [Molibresib] | 5.5 | 4.2 | 5.5 | -5.3 | -1.8 | 6.8 | 0.4 | -3.9 | 0.4 | -1.2 | -1 | -5.5 | -0.4
CN[C@@H](C)C(=O)N[C@H](C(=O)N1CCC[C@H]1c1nc(C(=O)c2ccc(F)cc2)cs1)C1CCCCC1 [LCL161] | -1.3 | 0.8 | -1.3 | 3.3 | -0.2 | -0.8 | -1.3 | 1 | -1.3 | 11.6 | 4.5 | -1.3 | -0.7
Cc1c(-c2c(-c3ccc(F)o3)sc3ncnc(O[C@H](Cc4ccccc4OCc4ccnn4CC(F)(F)F)C(=O)O)c23)ccc(OCCN2CCN(C)CC2)c1Cl | 11.6 | 14.5 | 9.2 | 31.7 | 28.5 | 8.1 | -11.5 | 19.6 | 7 | 32.7 | 29.6 | 10.4 | 12.2
CN(c1ncccc1CNc1nc(Nc2ccc3c(c2)CC(=O)N3)ncc1C(F)(F)F)S(C)(=O)=O | 0.8 | -1.2 | 6 | -0.7 | -0.4 | -0.7 | 5 | 3.8 | 2.2 | 5.1 | 1.5 | -0.6 | -0.4
C=CC(=O)N1CCN(CCCn2c(=O)c(-c3c(Cl)c(OC)cc(OC)c3Cl)cc3cnc(NC)nc32)CC1 [PRN1371] | -0.7 | 11.1 | 15.7 | -11.5 | 5.7 | 21.1 | 11.9 | -4.8 | 2.4 | -9.1 | -3.3 | -10.8 | 15.6
CC(=O)c1c(C)c2cnc(Nc3ccc(N4CCNCC4)cn3)nc2n(C2CCCC2)c1=O [Palbociclib] | 2.9 | -7.7 | 11.4 | -1.6 | 6.9 | 5.8 | -2.5 | -0.3 | 0 | 6.1 | 10.4 | 1 | 2.4
